US7425557B2, “Inhibitors of glycogen synthase kinase 3” (Novartis Vaccines and Diagnostics, Inc., priority 1998, dated 2008)

Biological target: human GSK3β (Homo sapiens, UniProt P49841)
Assay: Screening for GSK3 inhibitory activity using a cell-free assay
Format: biochemical
Conditions: read-out: IC50 with respect to GSK3
Experimental: This amount represents the amount of radiolabeled phosphate incorporated into the peptide substrate.
The captured radiolabeled peptide substrate can be quantitated in a scintillation counter using known methods. […] If an inhibitor is present during the reaction, GSK3 activity will be reduced, and a smaller quantity of radiolabeled phosphate will thus be incorporated into the peptide substrate.
Pyrimidine and pyridine compounds of the present invention were dissolved in DMSO, then tested for inhibition of human GSK3β (the nucleotide sequence for human GSK3β appears in GenBank under Accession No. L33801).
While the reaction was proceeding, streptavidin-coated Labsystems “Combiplate 8” capture plates (Labsystems, Helsinki, Finland) were blocked by incubating them with 300 μl/well of PBS containing 1% bovine serum albumin for at least one hour at room temperature. The blocking solution was then removed by aspiration, and the capture plates were filled with 100 ul/well of stopping reagent (50 μM ATP/20 mM EDTA).
When the three hour enzyme reaction was finished, triplicate 100 μl aliquots of each reaction mix were transferred to three wells containing stopping solution, one well on each of the three capture plates, and the well contents were mixed well. […] Finally, 200 μl of Microscint-20 scintillation fluid was added to each well of the plate. The plates were coated with plate sealers, then left on a shaker for 30 minutes. Each capture plate was counted in a Packard TopCount scintillation counter (Meridian, Conn.) and the results were plotted as a function of compound concentration.

Chain of human GSK3β (P49841 whole entry): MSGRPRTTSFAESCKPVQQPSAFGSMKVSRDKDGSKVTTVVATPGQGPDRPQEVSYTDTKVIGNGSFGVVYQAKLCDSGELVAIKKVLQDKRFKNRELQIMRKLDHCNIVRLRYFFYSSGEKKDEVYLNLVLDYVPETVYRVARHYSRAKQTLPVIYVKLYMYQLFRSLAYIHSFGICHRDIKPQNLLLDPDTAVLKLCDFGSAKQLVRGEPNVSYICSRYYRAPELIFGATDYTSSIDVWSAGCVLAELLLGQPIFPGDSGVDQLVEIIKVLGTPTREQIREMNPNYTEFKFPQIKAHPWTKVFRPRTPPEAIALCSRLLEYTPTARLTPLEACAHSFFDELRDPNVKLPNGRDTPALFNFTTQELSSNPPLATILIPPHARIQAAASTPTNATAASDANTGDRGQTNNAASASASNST

| IC50 | SMILES |
| --- | --- |
| ≤ 10000 nM | O=[N+]([O-])c1ccc(NCCNc2ccc([N+](=O)[O-])c(NCc3ccc(Cl)cc3Cl)n2)nc1 [(6-{[(2,4-dichlorophenyl)methyl]amino}-5-nitro(2-pyridyl)){2-[(5-nitro(2-pyridyl))amino]ethyl}amine] |
| ≤ 1000 nM | N#Cc1ccc(-c2nc(NCCNc3ccc([N+](=O)[O-])cn3)ncc2C(=O)OCCN2CCOCC2)cc1 [2-morpholin-4-ylethyl 4-(4-cyanophenyl)-2-({2-[(5-nitro(2-pyridyl))amino]ethyl}-amino)pyrimidine-5-carboxylate] |
| ≤ 10000 nM | N#Cc1cnc(NCCNc2ccc([N+](=O)[O-])cn2)nc1-c1ccc(Cl)cc1Cl [4-(2,4-dichlorophenyl)-2-({2-[(5-nitro(2-pyridyl))amino]-ethyl}amino)pyrimidine-5-carbonitrile] |
| ≤ 10000 nM | Nc1nc(NCCNc2nccc(-c3ccc(C(=O)NCc4cccc(Br)c4)cc3)n2)ccc1[N+](=O)[O-] [{4-[2-({2-[(6-amino-5-nitro(2-pyridyl))amino]ethyl}amino)pyrimidin-4-yl]phenyl}-N-[(3-bromophenyl)methyl]-carboxamide] |
| ≤ 10000 nM | CC(=O)Nc1ccc(-c2ccnc(NCCNc3ccc([N+](=O)[O-])cn3)n2)cc1 [N-{4-[2-({2-[(5-nitro-2-pyridyl)amino]ethyl}amino)-pyrimidin-4-yl]phenyl}acetamide] |
| ≤ 10000 nM | COc1cccc(CCNc2nccc(-c3ccc(C(N)=O)cc3)n2)c1 [4-(2-{[2-(3-methoxyphenyl)ethyl]amino}pyrimidin-4-yl)-benzamide] |
| ≤ 1000 nM | Nc1nc(NCCNc2ncc(-n3nnnc3C(F)(F)F)c(-c3ccc(Cl)cc3Cl)n2)ccc1[N+](=O)[O-] [{2-[(6-amino-5-nitro(2-pyridyl))amino]ethyl}{4-(2,4-dichlorophenyl)-5-[5-(trifluoromethyl)(1,2,3,4-tetraazolyl)]pyrimidin-2-yl}amine] |
| ≤ 10000 nM | CCOC(=O)c1c(CC)nc(NCCCNc2ccc([N+](=O)[O-])cn2)nc1-c1ccc(C(N)=O)cc1 [ethyl 4-(4-carbamoylphenyl)-6-ethyl-2-({3-[(5-nitro(2-pyridyl))amino]propyl}amino)pyrimidine-5-carboxylate] |
| ≤ 10000 nM | COc1cccc(OCCCNc2nccc(-c3ccc(C(N)=O)cc3)n2)c1 [4-(2-{[3-(3-methoxyphenoxy)propyl]-amino}pyrimidin-4-yl)benzamide] |
| ≤ 1000 nM | Cc1c[nH]c(-c2cnc(NCCNc3ccc([N+](=O)[O-])c(N)n3)nc2-c2ccc(Cl)cc2Cl)n1 [{2-[(6-amino-5-nitro(2-pyridyl))amino]-ethyl}[4-(2,4-dichlorophenyl)-5-(4-methylimidazol-2-yl)pyrimidin-2-yl]amine] |
| ≤ 10000 nM | NC(=O)c1ccc(-c2ccnc(NCc3ccc(C(F)(F)F)cc3)n2)cc1 [4-[2-({[4-(trifluoromethyl)phenyl]methyl}amino)pyrimidin-4-yl]benzamide] |
| ≤ 10000 nM | O=C(NCc1ccc(Cl)c(Cl)c1)c1ccc(-c2ccnc(NCCNc3ccc([N+](=O)[O-])cn3)n2)cc1 [N-[(3,4-dichlorophenyl)methyl]{4-[2-({2-[(5-nitro(2-pyridyl))amino]ethyl}amino)pyrimidin-4-yl]phenyl}carboxamide] |
| ≤ 10000 nM | NC(=O)c1ccc(-c2ccnc(NCCCCc3ccccc3)n2)cc1 [4-{2-[(4-phenylbutyl)amino]-pyrimidin-4-yl}benzamide] |
| ≤ 1000 nM | CCc1cnc(NCCNc2ccc([N+](=O)[O-])cn2)nc1-c1ccc(Cl)cc1Cl [[4-(2,4-dichlorophenyl)-5-ethylpyrimidin-2-yl]{2-[(5-nitro(2-pyridyl))amino]ethyl}amine] |
| ≤ 1000 nM | N#Cc1ccc(-c2nc(NCCNc3ccc([N+](=O)[O-])cn3)nc(-c3cccc([N+](=O)[O-])c3)c2C(=O)O)cc1 [4-(4-cyanophenyl)-2-({2-[(5-nitro(2-pyridyl))amino]ethyl}amino)-6-(3-nitrophenyl)pyrimidine-5-carboxylic acid] |
| ≤ 1000 nM | Cn1ccnc1-c1cnc(NCCNc2ccc([N+](=O)[O-])c(N)n2)nc1-c1ccc(Cl)cc1Cl [{2-[(6-amino-5-nitro(2-pyridyl))amino]ethyl}[4-(2,4-dichlorophenyl)-5-(1-methylimidazol-2-yl)pyrimidin-2-yl]amine] |
| ≤ 10000 nM | CCOC(=O)c1cnc(NCCNc2ccc([N+](=O)[O-])cn2)nc1-c1ccc(S(N)(=O)=O)cc1 [ethyl 2-({2-[(5-nitro(2-pyridyl))amino]ethyl}amino)-4-(4-sulfamoylphenyl)pyrimidine-5-carboxylate] |
| ≤ 1000 nM | CCOC(=O)c1cnc(NCCNc2ccc([N+](=O)[O-])cc2)nc1-c1ccc(C#N)cc1 [ethyl 4-(4-cyanophenyl)-2-({2-[(4-nitrophenyl)amino]ethyl}amino)-pyrimidine-5-carboxylate] |
| ≤ 10000 nM | Cc1nc(NCCNc2ccc([N+](=O)[O-])cn2)nc(-c2ccccc2)c1C(=O)O [6-methyl-2-({2-[(5-nitro(2-pyridyl))amino]ethyl}amino)-4-phenylpyrimidine-5-carboxylic acid] |
| ≤ 1000 nM | Cc1noc(-c2cnc(NCCNc3ccc([N+](=O)[O-])cn3)nc2-c2ccc(C#N)cc2)n1 [4-[5-(3-methyl(1,2,4-oxadiazol-5-yl))-2-({2-[(5-nitro(2-pyridyl))amino]-ethyl}amino)pyrimidin-4-yl]benzenecarbonitrile] |
| ≤ 1000 nM | CN(C)CCOC(=O)c1cnc(NCCNc2ccc([N+](=O)[O-])c(N)n2)nc1-c1ccc(Cl)cc1Cl [2-(dimethylamino)ethyl 2-({2-[(6-amino-5-nitro(2-pyridyl))amino]ethyl}amino)-4-(2,4-dichlorophenyl)pyrimidine-5-carboxylate] |
| ≤ 1000 nM | CCOC(=O)c1cnc(NCCNc2ncc(C#N)c(N)n2)nc1-c1ccc(C#N)cc1 [ethyl 2-({2-[(4-amino-5-cyanopyrimidin-2-yl)amino]ethyl}amino)-4-(4-cyanophenyl)pyrimidine-5-carboxylate] |
| ≤ 10000 nM | O=[N+]([O-])c1ccc(NCCNc2nccc(-c3ccc(O)cc3)n2)nc1 [4-[2-({2-[(5-nitro-2-pyridyl)-amino]ethyl}amino)pyrimidin-4-yl]phenol] |
| ≤ 10000 nM | CCOC(=O)c1cnc(NCCNc2ccc([N+](=O)[O-])cn2)nc1Nc1ccc(Cl)cc1Cl [ethyl 4-[(2,4-dichlorophenyl)amino]-2-({2-[(5-nitro(2-pyridyl))amino]-ethyl}amino)pyrimidine-5-carboxylate] |
| ≤ 1000 nM | CN(C)CCOC(=O)c1cnc(NCCNc2ccc([N+](=O)[O-])cn2)nc1-c1ccc(C#N)cc1 |
| ≤ 1000 nM | CN(C)CCc1noc(-c2cnc(NCCNc3ccc([N+](=O)[O-])cn3)nc2-c2ccc(C#N)cc2)n1 [4-[5-{3-[2-(dimethylamino)ethyl](1,2,4-oxadiazol-5-yl)}-2-({2-[(5-nitro(2-pyridyl))amino]-ethyl}amino)pyrimidin-4-yl]benzenecarbonitrile] |
| ≤ 1000 nM | NC(=O)c1ccc(-c2ccnc(NCCNc3ccc([N+](=O)[O-])cn3)n2)cc1 [4-[2-({2-[(5-nitro-2-pyridyl)amino]ethyl}amino)-pyrimidin-4-yl]benzamide] |
| ≤ 1000 nM | O=[N+]([O-])c1ccc(NCCNc2ccc(-n3ccnc3)c(-c3ccc(Cl)cc3Cl)n2)nc1 [[6-(2,4-dichlorophenyl)-5-imidazolyl(2-pyridyl)]{2-[(5-nitro(2-pyridyl))amino]ethyl}amine] |
| ≤ 1000 nM | CCOC(=O)c1cnc(NCCNc2ccc([N+](=O)[O-])cn2)nc1-c1ccc2c(c1)OCO2 |
